How the values were obtained:
[1] = test system: MCF-7 cells; test: Proliferation of human breast cancer cells MCF-7 (estrogenic and antiestrogenic activity); format: cell-based; conditions: ethanol test = 100
Description: The comparative study of the proliferation of the human breast cancer cells MCF-7 under the action of estradiol, SECO, and SECO-containing extracts was carried out according to a known method (H. Adlercreutz, Y. Mousavi, “Enterolactone and estradiol inhibit each other's proliferative effect on MCF-7 breast cancer cells in culture,” J. Steroid. Biochem. Mol. Biol. 41: 615-619 (1992)). To estimate the estrogenic activity of the preparations containing SECO, 1 M solutions of the latter in ethanol (the concentration is indicated for SECO present in the solution) were added to the cell culture with achievement of the final 1 μM concentration of SECO. In each experiment on proliferation, 17β-estradiol was used as a positive standard for the estimation of the estrogenic activity and was also added as an ethanolic solution to achieve the final 1 nM concentration. To estimate the antiestrogenic activity, solutions of 17β-estradiol and the tested SECO preparations, among which there were the preparations obtained under the conditions of Examples 6, 7, and 14, were simultaneously added to the cell culture. The cell proliferation was estimated by counting the number of cells with the Coulter counter, and the results obtained are summarized in Table 2. In the test experiment (see entry 1 in Table 2), ethanol without lignan was added. Five measurements were carried out under each type of conditions.

[2] = test system: Saccharomyces cerevisiae BKM Y-1173; test: Survival rate of S. cerevisiae cells under the action of hydrogen peroxide (antioxidant activity); format: cell-based; conditions: antioxidant 5 mg/ml (for DHQ + SECO, total concentration of both), 1 h incubation
Description: Antioxidant activity of DHQ, SECO, and their complexes obtained under the conditions of Examples 6 and 7 was studied by a known method (D. J. Jamieson, “Saccharomyces cerevisiae has distinct adaptive responses to both hydrogen peroxide and menadione” J. Bacteriol. 174: 6678-6681 (1992)) on yeast Saccharomyces cerevisiae BKM Y-1173. The yeasts were grown to the mid-logarithmic growth stage on […] medium containing 2% glucose, the yeast extract, and mineral salts. The yeast cells were separated from the medium by centrifugation, two times washed with water, and incubated with hydrogen peroxide and antioxidants in an aqueous suspension (OD600 0.1-0.15) for 1 h with periodic shaking. Then the corresponding dilutions were made, the yeasts were seeded on the agarized glucose-peptone medium and cultivated for […] at 30° C., and the number of grown colonies and the survival rate of S. cerevisiae cells were counted (Table 1).

SMILES	Proliferation of cells MCF-7, % ([1]; positive standard alone, final 1 nM concentration) [%]	Survival rate, % of test ([2]; 5 mM H2O2)	Survival rate, % of test ([2]; 10 mM H2O2)	Survival rate, % of test ([2]; Test (no H2O2))	Proliferation of cells MCF-7, % ([1]; antiestrogenic activity, added simultaneously with 17β-estradiol (1 nM), SECO 1 μM) [%]	Proliferation of cells MCF-7, % ([1]; estrogenic activity, preparation alone, final 1 μM concentration of SECO) [%]
C[C@]12CC[C@@H]3c4ccc(O)cc4CC[C@H]3[C@@H]1CC[C@@H]2O [17β-estradiol, reference compound]	140 ± 15	–	–	–	–	–
COc1cc(C[C@@H](CO)[C@H](CO)Cc2ccc(O)c(OC)c2)ccc1O [SECO (Example 14), secoisolariciresinol]	–	35 ± 5 % of test	9 ± 1 % of test	100 % of test	115 ± 10	115 ± 10
O=C1c2c(O)cc(O)cc2O[C@H](c2ccc(O)c(O)c2)[C@H]1O [DHQ (Example 13), Dihydroquercetin]	–	35 ± 5 % of test	9 ± 2 % of test	100 % of test	–	–

From patent publication US20100286255A1, “METHOD FOR EXTRACTING SECOISOLARICIRESINOL AND DIHYDROQUERCETIN FROM WOOD” (priority 2007, published 2010)
